Key:
[1] = system: 11β-HSD-1; assay: 11β-reductase activity in human monocytes differentiating into macrophages, incubated with IL-4 (FIG. 8); assay type: cell-based; settings: range of doses of IL-4, human monocytes at initiation of differentiation
From the text: Human Monocytes—monocytes isolated from peripheral blood by dextran sedimentation and percoll gradient methods. Monocytes were differentiated to Mφ @4×10^6 cells/ml over 4 days in Iscoves/10% autologous serum.
(§1) Samples were taken at different times and ^3H-cort and ^3H-11-DHC were separated from media samples by thin layer chromatography and analysed by phosphorimaging.
The manner in which differentiating macrophages acquire 11β-HSD-1 activity can be influenced by cytokines. In the experiment shown in FIG. 8, human monocytes at the initiation of differentiation into macrophages were incubated with a range of doses of IL-4. 11β-reductase activity was measured by incubation with tritiated 11-DHC.

[2] = target: T1, 11β-HSD1 (Mus musculus, UniProt P50172); assay: Conversion of 3H-11-dehydrocorticosterone to corticosterone in macrophage cultures (FIG. 2b, 2c); assay type: cell-based
T1 construct: endogenous in cells; host or cells: mouse macrophages (probably thioglycollate-elicited peritoneal macrophages from C57Bl/6 mice)
T1 sequence (P50172 whole entry): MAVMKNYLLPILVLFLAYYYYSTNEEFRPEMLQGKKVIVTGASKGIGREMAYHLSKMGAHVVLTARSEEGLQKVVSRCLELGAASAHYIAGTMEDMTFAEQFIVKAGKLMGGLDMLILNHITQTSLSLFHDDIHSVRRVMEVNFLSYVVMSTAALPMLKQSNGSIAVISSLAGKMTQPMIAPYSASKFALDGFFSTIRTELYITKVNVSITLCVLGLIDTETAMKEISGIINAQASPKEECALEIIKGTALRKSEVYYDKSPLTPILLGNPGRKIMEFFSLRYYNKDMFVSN
From the text: as §1

[3] = system: murine peripheral macrophages; assay: Phagocytosis by murine peripheral macrophages (FIG. 3); assay type: cell-based; settings: for phagocytosis performance of macrophages: over 24 hours
Method: (§2) Fresh PMN were isolated from peripheral blood and aged to apoptosis in Teflon wells over 24 hrs in Iscoves/10% autologous serum. Mφ were treated with glucocorticoids as described in the figures. Mφ and aPMN were washed with 1×PBS and interacted in serum free Iscoves for 30 mins at 37° C. The cell layer was gently washed to remove […] cells, fixed in 1×Formalin and stained with PMN selective myeloperoxidase.

[4] = system: murine BMD Mφ; assay: Phagocytosis of apoptotic PMN by BMD Mφ from control and 11β-HSD-/- mice (FIG. 4); assay type: cell-based; settings: for enhanced phagocytic effect in 11βHSD-1-/- Mφ: 11βHSD-1-/- macrophages versus control; for phagocytosis of apoptotic PMN by BMD Mφ: 48 hrs treatment, n=4/group
Method: Bone Marrow Derived Macrophages (BMD Mφ)—bone marrow was extracted from femurs (C57BI/6 mice) and cultured @4×10^5 cells/ml in DMEM/10% FCS/10% L929 cell line supernatant for 8 days.
as §2
Transgenic 11β-HSD^−/− mice have been described previously (Kotelevstev et al., PNAS (USA) 94:14924-14929). Macrophages are isolated from control and 11β-HSD^−/− mice and assayed in a PMN phagocytosis assay as described above.

[5] = system: blood glucose levels; settings: oral administration, two mouse models of diabetes; cited from earlier work

Row | Molecule | enhanced phagocytic effect in 11βHSD-1-/- Mφ [4] | phagocytosis of apoptotic PMN by BMD Mφ [4] | phagocytosis performance of macrophages [3] | other results
1 | IL-4: cytokine capable of inducing 11β-HSD 1 expression |  |  |  | conversion of inert 11-DHC to active corticosterone (11β-reductase activity) [1]: dose-relatedly increased
2 | CC1(C)[C@@H](OC(=O)CCC(=O)O)CC[C@]2(C)[C@H]3C(=O)C=C4[C@@H]5C[C@@](C)(C(=O)O)CC[C@]5(C)CC[C@@]4(C)[C@]3(C)CC[C@@H]12 [carbenoxolone] |  |  |  | effect on conversion of (A) to (B) by 11β-HSD1 ([2]; high concentrations of carbenoxolone): can be blocked; effect of inactive 11-dehydrocorticosterone on phagocytosis in the presence of the inhibitor ([3]; macrophages incubated with 11-dehydrocorticosterone plus carbenoxolone): completely abolishes
3 | C[C@]12C[C@H](O)[C@H]3[C@@H](CCC4=CC(=O)CC[C@@]43C)[C@@H]1CC[C@@H]2C(=O)CO [corticosterone] | no effect | enhancement of phagocytosis | two-fold | 
4 | C[C@]12CC(=O)[C@H]3[C@@H](CCC4=CC(=O)CC[C@@]43C)[C@@H]1CC[C@@H]2C(=O)CO [11-dehydrocorticosterone] | abrogated | enhancement of phagocytosis | two-fold | conversion of inactive 11-dehydrocorticosterone (A) to active corticosterone (B) ([2]; mouse macrophages, over a 24 hour period): clearly shows conversion of (A) to (B)
5 | C=CC(C)(C)c1[nH]c2ccccc2c1C1=C(O)C(=O)C(c2c[nH]c3c(CC=C(C)C)cccc23)=C(O)C1=O [L-783,281] |  |  |  | blood glucose levels [5]: significant lowering
